These results are taken from patent US11759462B2, “Spirocyclic compounds as tryptophan hydroxylase inhibitors” (priority 2013, dated 2023).

In general, IC50 refers to the midpoint of a concentration-inhibition curve.

Where two headings read alike, the source gives them in different places. Where only a bound is given, the exact number is not on record here.

The target in the assay is T1, Recombinant human TPH1 (MBP tagged) (Homo sapiens, UniProt P17752).
T1 construct: cloning full length human TPH1 cDNA in to a bacterial pMAL-c5E expression vector; made in house; host or cells: E. coli BL21 (DE3)
T1 sequence (P17752 1-444): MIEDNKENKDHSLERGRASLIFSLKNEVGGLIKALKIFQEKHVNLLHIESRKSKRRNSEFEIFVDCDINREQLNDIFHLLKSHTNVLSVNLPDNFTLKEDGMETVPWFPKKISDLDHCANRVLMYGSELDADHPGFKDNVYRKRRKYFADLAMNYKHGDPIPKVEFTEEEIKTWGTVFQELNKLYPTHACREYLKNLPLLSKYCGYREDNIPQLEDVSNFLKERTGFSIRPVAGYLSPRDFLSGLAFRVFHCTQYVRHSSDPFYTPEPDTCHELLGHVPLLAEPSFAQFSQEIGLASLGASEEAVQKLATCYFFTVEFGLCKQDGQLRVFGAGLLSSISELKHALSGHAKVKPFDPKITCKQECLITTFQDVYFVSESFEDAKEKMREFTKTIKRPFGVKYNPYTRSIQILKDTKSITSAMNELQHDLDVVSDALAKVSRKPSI
The assay is described as follows: TPH1 in vitro inhibition assay (kinetic fluorescence). The class given is biochemical. From the text: Recombinant human TPH1 (rTPH1 GenBank™ accession no. NP_004179) was expressed by cloning full length human TPH1 cDNA in to a bacterial pMAL-c5E expression vector to produce maltose-binding protein (MBP) TPH1 fusion proteins. E. coli BL21 (DE3) containing pMAL-c5E-TPH1 was used for protein generation and the recombinant protein was purified utilizing standard column chromatography techniques. The MBP tagged TPH1 (MBP-TPH1) was used directly to screen compounds as described below. Recombinant human TPH2 (rTPH2 GenBank™ accession no. 173353), PheOH (rPheOH GenBank™ accession no. K03020) and TH (rTH GenBank™ accession no. L20679) with an MBP tag were produced similarly.
TPH1 activities were measured in an assay containing 200 mM ammonium sulfate, 7 mM DTT, 50 μg/mL catalase, 25 μM ammonium iron sulfate, 50 mM MES, pH 7.1. Test compounds were diluted in 100% DMSO and added to the assay plate in 1 μL aliquots at 100× final concentration. Fifty microliters of assay buffer containing 30 nM TPH1 enzyme (MBP tagged) were added to the plate wells containing the test compound by the use of an Eppendorf repeater pipette. The reaction was initiated by the addition of 50 μL of assay buffer containing 60 μM tryptophan and 72 μM 6-6-methyltetra-hydropterin (2× final concentration) by the use of a Multidrop (LabSystems). Final reaction conditions were 15 nM TPH1 enzyme, 30 μM tryptophan, 36 μM 6-methyltetra-hydropterin, 200 mM ammonium sulfate, 7 mM DTT, […], 25 μM ferrous ammonium sulfate, 50 mM MES, pH 7.1, with atmospheric oxygen at room temperature. The plate was immediately placed onto an M5 plate reader (Molecular Devices) for kinetic fluorescence measurement using an excitation setting of 300 nm and an emission setting of 335 nm. Fluorescence reads are recorded in kinetic mode for 300 seconds (5 minutes).
Kinetic assay data for compounds at specific concentrations was translated into slopes using the Softmax Pro software on a Spectramax reader, and compound inhibition slopes were compared with wells containing enzyme, substrate and cofactor in the absence of inhibitor (100%), and wells containing substrate and cofactor in the absence of enzyme (0%). DMSO concentration in the assay was 1%. […] IC50's were determined using Graphpad Prism.

The mark [1] stands for this setting: read-out: TPH1 Range (TPH1 inhibition IC50).

`Cc1ccn(-c2cc(-c3ccc([S+](C)[O-])cc3)ccc2[C@@H](Oc2cc(N3CCC4(CC3)CN[C@H](C(=O)O)C4)nc(N)n2)C(F)(F)F)n1` (stereo partly drawn) [Example 1a, (3S)-8-(2-amino-6-((1R)-2,2,2-trifluoro-1-(3-(3-methyl-1H-pyrazol-1-yl)-4′-(methylsulfinyl)-[1,1′-biphenyl]-4-yl)ethoxy)pyrimidin-4-yl)-2,8-diazaspiro[4.5]decane-3-carboxylic acid]: under setting [1], the IC50 was less than 50 nM.

Regarding `Cc1ccn(-c2cc(-c3ccc(CN)cc3)ccc2[C@@H](Oc2cc(N3CCC4(CC3)CN[C@H](C(=O)O)C4)nc(N)n2)C(F)(F)F)n1` [Example 1ab, (S)-8-(2-amino-6-((R)-1-(4′-(aminomethyl)-3-(3-methyl-1H-pyrazol-1-yl)-[1,1′-biphenyl]-4-yl)-2,2,2-trifluoroethoxy)pyrimidin-4-yl)-2,8-diazaspiro[4.5]decane-3-carboxylic acid], the IC50 under setting [1] was less than 50 nM.

For `Cc1ccn(-c2cc(-c3cccc(F)c3)ccc2[C@@H](Oc2cc(N3CCC4(CC3)CN[C@H](C(=O)O)C4)nc(N)n2)C(F)(F)F)n1` [Example 1ac, (S)-8-(2-amino-6-((R)-2,2,2-trifluoro-1-(3′-fluoro-3-(3-methyl-1H-pyrazol-1-yl)-[1,1′-biphenyl]-4-yl)ethoxy)pyrimidin-4-yl)-2,8-diazaspiro[4.5]decane-3-carboxylic acid], under setting [1], the IC50 was less than 50 nM.

Consider `Cc1ccn(-c2cc(-c3ccc4ncccc4c3)ccc2[C@@H](Oc2cc(N3CCC4(CC3)CN[C@H](C(=O)O)C4)nc(N)n2)C(F)(F)F)n1` [Example 1ad, (S)-8-(2-amino-6-((R)-2,2,2-trifluoro-1-(2-(3-methyl-1H-pyrazol-1-yl)-4-(quinolin-6-yl)phenyl)ethoxy)pyrimidin-4-yl)-2,8-diazaspiro[4.5]decane-3-carboxylic acid], for which, under setting [1], the IC50 is less than 50 nM.

As to `Cc1ccc(-c2ccc([C@@H](Oc3cc(N4CCC5(CC4)CN[C@H](C(=O)O)C5)nc(N)n3)C(F)(F)F)c(-n3ccc(C)n3)c2)cc1` [Example 1ae, (S)-8-(2-amino-6-((R)-2,2,2-trifluoro-1-(4′-methyl-3-(3-methyl-1H-pyrazol-1-yl)-[1,1′-biphenyl]-4-yl)ethoxy)pyrimidin-4-yl)-2,8-diazaspiro[4.5]decane-3-carboxylic acid], under setting [1], the half-inhibitory concentration (IC50) was less than 50 nM.

`Cc1ccn(-c2cc(-c3ccc(Cl)c(Cl)c3)ccc2[C@@H](Oc2cc(N3CCC4(CC3)CN[C@H](C(=O)O)C4)nc(N)n2)C(F)(F)F)n1` [Example 1af, (S)-8-(2-amino-6-((R)-1-(3′,4′-dichloro-3-(3-methyl-1H-pyrazol-1-yl)-[1,1′-biphenyl]-4-yl)-2,2,2-trifluoroethoxy)pyrimidin-4-yl)-2,8-diazaspiro[4.5]decane-3-carboxylic acid]: the IC50 (TPH1 Range (TPH1 inhibition IC50)) is less than 50 nM.

As to `Cc1ccn(-c2cc(-c3ccc(F)c(F)c3)ccc2[C@@H](Oc2cc(N3CCC4(CC3)CN[C@H](C(=O)O)C4)nc(N)n2)C(F)(F)F)n1` [Example 1ag, (S)-8-(2-amino-6-((R)-1-(3′,4′-difluoro-3-(3-methyl-1H-pyrazol-1-yl)-[1,1′-biphenyl]-4-yl)-2,2,2-trifluoroethoxy)pyrimidin-4-yl)-2,8-diazaspiro[4.5]decane-3-carboxylic acid], under setting [1], the IC50 was less than 50 nM.

Take `Cc1ccn(-c2cc(-c3ccc(Cl)cc3)ccc2[C@@H](Oc2cc(N3CCC4(CC3)CN[C@H](C(=O)O)C4)nc(N)n2)C(F)(F)F)n1` [Example 1ah, (S)-8-(2-amino-6-((R)-1-(4′-chloro-3-(3-methyl-1H-pyrazol-1-yl)-[1,1′-biphenyl]-4-yl)-2,2,2-trifluoroethoxy)pyrimidin-4-yl)-2,8-diazaspiro[4.5]decane-3-carboxylic acid]: the IC50 under setting [1] is less than 50 nM.

For `Cc1ccn(-c2cc(-c3cncnc3)ccc2[C@@H](Oc2cc(N3CCC4(CC3)CN[C@H](C(=O)O)C4)nc(N)n2)C(F)(F)F)n1` [Example 1ai, (S)-8-(2-amino-6-((R)-2,2,2-trifluoro-1-(2-(3-methyl-1H-pyrazol-1-yl)-4-(pyrimidin-5-yl)phenyl)ethoxy)pyrimidin-4-yl)-2,8-diazaspiro[4.5]decane-3-carboxylic acid], under setting [1], the IC50 was less than 50 nM.

In the case of `Cc1ccn(-c2cc(-c3cc(Cl)cc(C(F)(F)F)c3)ccc2[C@@H](Oc2cc(N3CCC4(CC3)CN[C@H](C(=O)O)C4)nc(N)n2)C(F)(F)F)n1` [Example 1ak, (S)-8-(2-amino-6-((R)-1-(3′-chloro-3-(3-methyl-1H-pyrazol-1-yl)-5′-(trifluoromethyl)-[1,1′-biphenyl]-4-yl)-2,2,2-trifluoroethoxy)pyrimidin-4-yl)-2,8-diazaspiro[4.5]decane-3-carboxylic acid], under setting [1], the IC50 lay within 50 to 300 nM.

`CCOc1ccc(-c2ccc([C@@H](Oc3cc(N4CCC5(CC4)CN[C@H](C(=O)O)C5)nc(N)n3)C(F)(F)F)c(-n3ccc(C)n3)c2)cc1Cl` [Example 1al, (S)-8-(2-amino-6-((R)-1-(3′-chloro-4′-ethoxy-3-(3-methyl-1H-pyrazol-1-yl)-[1,1′-biphenyl]-4-yl)-2,2,2-trifluoroethoxy)pyrimidin-4-yl)-2,8-diazaspiro[4.5]decane-3-carboxylic acid]: the IC50 under setting [1] is less than 50 nM.

As to `Cc1ccn(-c2cc(-c3cccc(C(F)(F)F)c3)ccc2[C@@H](Oc2cc(N3CCC4(CC3)CN[C@H](C(=O)O)C4)nc(N)n2)C(F)(F)F)n1` [Example 1am, (S)-8-(2-amino-6-((R)-2,2,2-trifluoro-1-(3-(3-methyl-1H-pyrazol-1-yl)-3′-(trifluoromethyl)-[1,1′-biphenyl]-4-yl)ethoxy)pyrimidin-4-yl)-2,8-diazaspiro[4.5]decane-3-carboxylic acid], the IC50 under setting [1] was less than 50 nM.

Consider `Cc1cc(Cl)cc(-c2ccc([C@@H](Oc3cc(N4CCC5(CC4)CN[C@H](C(=O)O)C5)nc(N)n3)C(F)(F)F)c(-n3ccc(C)n3)c2)c1` [Example 1an, (S)-8-(2-amino-6-((R)-1-(3′-chloro-5′-methyl-3-(3-methyl-1H-pyrazol-1-yl)-[1,1′-biphenyl]-4-yl)-2,2,2-trifluoroethoxy)pyrimidin-4-yl)-2,8-diazaspiro[4.5]decane-3-carboxylic acid], for which the IC50 under setting [1] was less than 50 nM.

As for `Cc1ccn(-c2cc(-c3ccc(Cl)c(F)c3)ccc2[C@@H](Oc2cc(N3CCC4(CC3)CN[C@H](C(=O)O)C4)nc(N)n2)C(F)(F)F)n1` [Example 1ao, (S)-8-(2-amino-6-((R)-1-(4′-chloro-3′-fluoro-3-(3-methyl-1H-pyrazol-1-yl)-[1,1′-biphenyl]-4-yl)-2,2,2-trifluoroethoxy)pyrimidin-4-yl)-2,8-diazaspiro[4.5]decane-3-carboxylic acid], the IC50 under setting [1] was less than 50 nM.

Regarding `CCOc1cccc(-c2ccc([C@@H](Oc3cc(N4CCC5(CC4)CN[C@H](C(=O)O)C5)nc(N)n3)C(F)(F)F)c(-n3ccc(C)n3)c2)c1` [Example 1ap, (S)-8-(2-amino-6-((R)-1-(3′-ethoxy-3-(3-methyl-1H-pyrazol-1-yl)-[1,1′-biphenyl]-4-yl)-2,2,2-trifluoroethoxy)pyrimidin-4-yl)-2,8-diazaspiro[4.5]decane-3-carboxylic acid], the concentration for half-maximal inhibition (IC50) under setting [1] is less than 50 nM.

`Cc1ccn(-c2cc(-c3ccc(C)c(F)c3)ccc2[C@@H](Oc2cc(N3CCC4(CC3)CN[C@H](C(=O)O)C4)nc(N)n2)C(F)(F)F)n1` [Example 1aq, (S)-8-(2-amino-6-((R)-2,2,2-trifluoro-1-(3′-fluoro-4′-methyl-3-(3-methyl-1H-pyrazol-1-yl)-[1,1′-biphenyl]-4-yl)ethoxy)pyrimidin-4-yl)-2,8-diazaspiro[4.5]decane-3-carboxylic acid]: under setting [1], the IC50 is 50 to 300 nM.
